Here are results for two substances from patent US20110117554A1, “Formamide-containing mixtures for detecting nucleic acids” (priority 2009, published 2011).

The data set in a line: Melting temperatures of 20mer nucleic acid duplexes in formamide-water mixtures. The format is physicochemical. Particulars: for Melting Temperatures in Formamide: 1.5 μM single strand, 100 mM NaCl, 10 mM K-phosphate pH 7, 0.1 mM EDTA. The procedure: A mismatch in 50% formamide in the DNA strand lowers the melting temperature of the duplex containing LNA-8 from 72 to 66 to 62° C.
As the results in the Tables show, useful melting temperatures are obtained when the oligonucleotides bound in duplex contain at least 15 nucleotide units that have 2′-OMe ribonucleotides as their building blocks. Comparably useful melting temperatures are obtained when the oligonucleotides contain locked nucleic acid (LNA) carbohydrate analogs, as described in [Koshkin et al., 1998]. The data in the Tables also makes clear that the binding between two complementary DNA strands of this length is not useful in 50% formamide, as it is below 30° C. at 50% formamide.

Take “DNA:DNA: 20mer DNA duplex of strand-1 5′-CTTCAGGTACTGAGTCAAGC-3′ (SEQ ID NO 3) and strand-2 (SEQ ID NO 4) (chain 1 CTTCAGGTACTGAGTCAAGC; chain 2 GCTTGACTCAGTACCTGAAG; DNA, backbone and methylation of C not given here)”: the “Tm (Stability of Duplexes in Formamide and Water)” value by setting is: (0 % formamide (Table 3)) 61 °C; (25 % formamide (Table 3)) 44 °C; (50 % formamide (Table 3)) 28 °C; (70 % formamide (Table 3)) under 20 °C; (70 % formamide (Table 3), listed as model 20 mer) at most 20 °C. Besides, the “Melting Temperatures in Formamide” value runs as follows: (0 percent formamide) 62 °C; (25 percent formamide) 46 °C; (50 percent formamide) 29 °C.

Regarding “RNA:RNA: 20mer RNA duplex 5′-CUUCAGGUACUGAGUCAAGC-3′ (SEQ ID NO 1) with 3′-GAAGUCCAUGACUCAGUUCG-5′ (SEQ ID NO 2) (chain 2 GCUUGACUCAGUACCUGAAG; RNA, backbone not given here)”, the “Tm (Stability of Duplexes in Formamide and Water)” value is 73 °C (0 % formamide (Table 3)); 60 °C (25 % formamide (Table 3)); 48 °C (50 % formamide (Table 3)); 40 °C (70 % formamide (Table 3)); under 25 °C (90 % formamide (Table 3)). Also, the “Melting Temperatures in Formamide” value (0 percent formamide) turned out to be 73 °C, the “Melting Temperatures in Formamide” value (25 percent formamide) turned out to be 61 °C and the “Melting Temperatures in Formamide” value (50 percent formamide) is 49 °C.
